Measured values published in the supplement of paper PMC11368000.

How the values were obtained:
Settings in all cases: exposure time: 90 min
30145 [1] = donor line of iPSC-derived cardiomyocytes; experiment: POD (EC05) for increase in beat frequency (positive chronotrope) vs vehicle; higher = less potent (higher point of departure)
In short: (§1)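 Cardiomyocytes derived from human iPSCs of 16 donors were grown 14 days in gelatin-coated 384-well plates, loaded 2 h with a fluorescent Ca2+ dye, then exposed for 90 min at 37 °C to final concentrations of 0.1, 1, 10 and 100 µM in 0.5% DMSO. A FLIPR Tetra recorded Ca2+ flux at 8 frames/s for 100 s before and after exposure. Points of departure for each donor were derived by hierarchical Bayesian Hill fitting of vehicle-normalised beat frequency, decay-to-rise ratio or peak frequency. The thresholds applied were a 5% change, or a 95% loss for peak frequency.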

1434 [2] = donor line of iPSC-derived cardiomyocytes; experiment: POD (EC05) for decrease in beat frequency (negative chronotrope) vs vehicle; higher = less potent (higher point of departure)
In short: as §1

1083 [3] = donor line of iPSC-derived cardiomyocytes; experiment: as above
In short: as §1

1392 [4] = donor line of iPSC-derived cardiomyocytes; experiment: as above
In short: as §1

1531 = donor line of iPSC-derived cardiomyocytes; experiment: POD (EC05) for increase in Ca2+ transient decay-to-rise ratio (QT prolongation) vs vehicle; higher = less potent (higher point of departure)
Experimental: (§2)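 Human iPSC-derived cardiomyocytes from 16 donors were exposed for 90 min at 37 °C to each PFAS at 0.1, 1, 10 and 100 µM in 0.5% DMSO, 384-well plates. Kinetic Ca2+ flux (FLIPR) and Hoechst nuclei counts were normalised to vehicle wells and fitted with a hierarchical Bayesian Hill model to give donor-specific PODs: EC05 for beat-rate increase or decrease and for decay-to-rise ratio increase (QT proxy), EC95 for peak-frequency loss (asystole), EC10 for total cell number loss. 0.03 µM is the lower bound.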

11235 = donor line of iPSC-derived cardiomyocytes; experiment: as above
Experimental: as §2

1535 = donor line of iPSC-derived cardiomyocytes; experiment: as above
Experimental: as §2

30145 [5] = experiment: as above
Experimental: as §2

30171 = donor line of iPSC-derived cardiomyocytes; experiment: as above
Experimental: as §2

1434 [6] = experiment: as above
Experimental: as §2

20032 = donor line of iPSC-derived cardiomyocytes; experiment: as above
Experimental: as §2

1118 = donor line of iPSC-derived cardiomyocytes; experiment: as above
Experimental: as §2

1309 = donor line of iPSC-derived cardiomyocytes; experiment: as above
Experimental: as §2

1083 [7] = experiment: as above
Experimental: as §2

1368 = donor line of iPSC-derived cardiomyocytes; experiment: as above
Experimental: as §2

1392 [8] = experiment: as above
Experimental: as §2

1565 = donor line of iPSC-derived cardiomyocytes; experiment: as above
Experimental: as §2

20084 = donor line of iPSC-derived cardiomyocytes; experiment: as above
Experimental: as §2

1518 = donor line of iPSC-derived cardiomyocytes; experiment: as above
Experimental: as §2

1516 = donor line of iPSC-derived cardiomyocytes; experiment: as above
Experimental: as §2

Q: For O=C(O)CCC(F)(F)C(F)(F)C(F)(F)F [3:3 Fluorotelomer carboxylic acid], which POD vs vehicle 30145 [1] is on record?
A: > 100 µM

Q: And the POD vs vehicle 1434 [2]?
A: > 100 µM

Q: What about the POD vs vehicle 1083 [3] of the same compound?
A: > 100 µM

Q: What about the POD vs vehicle 1392 [4] of the same compound?
A: > 100 µM

Q: What about the POD vs vehicle 1531 of the same compound?
A: > 100 µM

Q: And the POD vs vehicle 11235?
A: > 100 µM

Q: What about the POD vs vehicle 1535 of the same compound?
A: > 100 µM

Q: What about the POD vs vehicle 30145 [5] of the same compound?
A: > 100 µM

Q: And the POD vs vehicle 30171?
A: > 100 µM

Q: What about the POD vs vehicle 1434 [6] of the same compound?
A: > 100 µM

Q: What about the POD vs vehicle 20032 of the same compound?
A: > 100 µM

Q: What about the POD vs vehicle 1118 of the same compound?
A: > 100 µM

Q: What about the POD vs vehicle 1309 of the same compound?
A: > 100 µM

Q: What about the POD vs vehicle 1083 [7] of the same compound?
A: > 100 µM

Q: What about the POD vs vehicle 1368 of the same compound?
A: > 100 µM

Q: What about the POD vs vehicle 1392 [8] of the same compound?
A: > 100 µM

Q: What about the POD vs vehicle 1565 of the same compound?
A: > 100 µM

Q: What about the POD vs vehicle 20084 of the same compound?
A: > 100 µM

Q: O=C(O)CCC(F)(F)C(F)(F)C(F)(F)C(F)(F)C(F)(F)F [2H,2H,3H,3H-Perfluorooctanoic_acid] was tested. Which POD vs vehicle 30145 [1] did it give?
A: > 100 µM

Q: And the POD vs vehicle 1434 [2]?
A: 23.8 µM

Q: And the POD vs vehicle 1083 [3]?
A: 39.6 µM

Q: What about the POD vs vehicle 1392 [4] of the same compound?
A: 20.4 µM

Q: What about the POD vs vehicle 1531 of the same compound?
A: 17 µM

Q: And the POD vs vehicle 11235?
A: > 100 µM

Q: And the POD vs vehicle 1535?
A: > 100 µM

Q: What about the POD vs vehicle 30145 [5] of the same compound?
A: > 100 µM

Q: And the POD vs vehicle 30171?
A: > 100 µM

Q: And the POD vs vehicle 1434 [6]?
A: > 100 µM

Q: What about the POD vs vehicle 20032 of the same compound?
A: 48.4 µM

Q: And the POD vs vehicle 1118?
A: > 100 µM

Q: And the POD vs vehicle 1309?
A: > 100 µM

Q: What about the POD vs vehicle 1083 [7] of the same compound?
A: > 100 µM

Q: What about the POD vs vehicle 1368 of the same compound?
A: > 100 µM

Q: What about the POD vs vehicle 1392 [8] of the same compound?
A: > 100 µM

Q: And the POD vs vehicle 1565?
A: > 100 µM

Q: And the POD vs vehicle 1518?
A: > 100 µM

Q: What about the POD vs vehicle 1516 of the same compound?
A: 43.9 µM

Q: And the POD vs vehicle 20084?
A: > 100 µM

Q: For OCCC(F)(F)C(F)(F)C(F)(F)C(F)(F)C(F)(F)C(F)(F)C(F)(F)C(F)(F)F [8:2 Fluorotelomer alcohol], which POD vs vehicle 30145 [1] is on record?
A: > 100 µM

Q: What about the POD vs vehicle 1434 [2] of the same compound?
A: > 100 µM

Q: And the POD vs vehicle 1083 [3]?
A: > 100 µM

Q: What about the POD vs vehicle 1392 [4] of the same compound?
A: > 100 µM

Q: What about the POD vs vehicle 1531 of the same compound?
A: > 100 µM

Q: And the POD vs vehicle 11235?
A: > 100 µM

Q: And the POD vs vehicle 1535?
A: > 100 µM

Q: What about the POD vs vehicle 30145 [5] of the same compound?
A: > 100 µM

Q: And the POD vs vehicle 30171?
A: > 100 µM

Q: And the POD vs vehicle 1434 [6]?
A: > 100 µM

Q: What about the POD vs vehicle 20032 of the same compound?
A: > 100 µM

Q: And the POD vs vehicle 1118?
A: > 100 µM

Q: What about the POD vs vehicle 1309 of the same compound?
A: > 100 µM

Q: And the POD vs vehicle 1083 [7]?
A: > 100 µM

Q: What about the POD vs vehicle 1368 of the same compound?
A: > 100 µM

Q: What about the POD vs vehicle 1392 [8] of the same compound?
A: > 100 µM

Q: And the POD vs vehicle 1565?
A: > 100 µM

Q: And the POD vs vehicle 1518?
A: > 100 µM

Q: And the POD vs vehicle 1516?
A: > 100 µM

Q: And the POD vs vehicle 20084?
A: > 100 µM

Q: For CC(O)C(F)(F)C(F)(F)F (stereo not drawn) [1-Pentafluoroethylethanol], which POD vs vehicle 30145 [1] is on record?
A: > 100 µM

Q: What about the POD vs vehicle 1434 [2] of the same compound?
A: > 100 µM

Q: What about the POD vs vehicle 1083 [3] of the same compound?
A: > 100 µM

Q: What about the POD vs vehicle 1392 [4] of the same compound?
A: > 100 µM

Q: And the POD vs vehicle 1531?
A: > 100 µM

Q: And the POD vs vehicle 11235?
A: > 100 µM

Q: What about the POD vs vehicle 1535 of the same compound?
A: > 100 µM

Q: What about the POD vs vehicle 30145 [5] of the same compound?
A: > 100 µM

Q: What about the POD vs vehicle 30171 of the same compound?
A: > 100 µM

Q: And the POD vs vehicle 1434 [6]?
A: > 100 µM

Q: And the POD vs vehicle 20032?
A: > 100 µM

Q: What about the POD vs vehicle 1118 of the same compound?
A: > 100 µM

Q: And the POD vs vehicle 1309?
A: > 100 µM

Q: And the POD vs vehicle 1083 [7]?
A: > 100 µM

Q: And the POD vs vehicle 1368?
A: > 100 µM

Q: And the POD vs vehicle 1392 [8]?
A: > 100 µM

Q: And the POD vs vehicle 1565?
A: > 100 µM

Q: What about the POD vs vehicle 1518 of the same compound?
A: > 100 µM

Q: What about the POD vs vehicle 1516 of the same compound?
A: > 100 µM

Q: And the POD vs vehicle 20084?
A: > 100 µM

Q: With NC(=O)C(F)(F)C(F)(F)C(F)(F)C(F)(F)C(N)=O [Octafluoroadipamide] as the compound, how does the POD vs vehicle 30145 [1] read?
A: > 100 µM

Q: And the POD vs vehicle 1434 [2]?
A: > 100 µM

Q: And the POD vs vehicle 1083 [3]?
A: > 100 µM

Q: And the POD vs vehicle 1392 [4]?
A: > 100 µM

Q: And the POD vs vehicle 1531?
A: > 100 µM

Q: What about the POD vs vehicle 11235 of the same compound?
A: > 100 µM

Q: What about the POD vs vehicle 1535 of the same compound?
A: > 100 µM

Q: What about the POD vs vehicle 30145 [5] of the same compound?
A: > 100 µM

Q: What about the POD vs vehicle 30171 of the same compound?
A: > 100 µM

Q: What about the POD vs vehicle 1434 [6] of the same compound?
A: > 100 µM

Q: And the POD vs vehicle 20032?
A: > 100 µM

Q: What about the POD vs vehicle 1118 of the same compound?
A: > 100 µM

Q: And the POD vs vehicle 1309?
A: > 100 µM

Q: And the POD vs vehicle 1083 [7]?
A: > 100 µM

Q: What about the POD vs vehicle 1368 of the same compound?
A: > 100 µM

Q: What about the POD vs vehicle 1392 [8] of the same compound?
A: > 100 µM

Q: And the POD vs vehicle 1565?
A: > 100 µM

Q: And the POD vs vehicle 1518?
A: > 100 µM

Q: What about the POD vs vehicle 1516 of the same compound?
A: > 100 µM

Q: What about the POD vs vehicle 20084 of the same compound?
A: > 100 µM
